Where two headings read alike, the source gives them in different places.
Columns and labels:
HSALR strain 20b mice [1] = test: DM1 mouse efficacy study: RT-PCR of MBNL1-dependent splicing targets in gastrocnemius; type: in vivo; conditions: sc, 7.5 mg/kg qod 5 doses, subcutaneous
HSALR strain 20b mice [2] = test: as above; type: in vivo; conditions: sc, 3 mg/kg qod 5 doses, subcutaneous
Description: HSALR strain 20b mice were used as a model for myotonic dystrophy type I (DM1) experimental studies when testing the efficacy of candidate compounds. To determine the genotype of the mice, the transgene of human skeletal actin (HSA) genomic level was compared to endogenous mouse skeletal actin (MSA) by PCR. Mice with an HSA:MSA ratio of 2:1, homozygous mice were used for the study. Disease phenotype was confirmed in homozygous HSALR by assessing myotonia by pinching the quadriceps of the mouse. […] Homozygous HSALR that have been confirmed by PCR genotyping HSA:MSA ratio and are positive for pinch myotonia were selected for candidate compound efficacy studies for DM1.
For each study, a control group of PBS injected mice was included along with mice test groups injected with the compound to be tested. For a statistical power >80%, five mice were used per group (three females and two males). As previously indicated, homozygous HSALR mice were selected aged 8-12 weeks at the beginning of the study. Littermate mice were evenly distributed across groups in the study. Each cage contained mice from a single group. Female mice from different litters were combined into one cage for a single test group. Male mice cannot be combined in cages with non-littermate mice. If any fighting occurred in cages with multiple mice, the mice with minor/superficial fight wounds were be separated and monitored. Mice with severe fight wounds were removed from the study. Mice were monitored throughout the study for weight changes over time, behavioral changes at time of injection, and any other potential health concerns that arose during the study.
Mice were injected with approximately ˜200 μL solution subcutaneously by 28-gauge syringe. The volume administered was determined by the weight of the mouse where 10 iaL solution is administered per 1 g of the weight of the mouse. The compound was solubilized in DPBS at a concentration of […], which equated to a dose of 0.1-3.0 mg compound per kg weight of the animal (mpk). Mice were weighed once a week, and the volume of administered compound solution (or DPBS) was adjusted accordingly for correct mpk dosing. Once a compound was tested for acute toxicity in FVB wildtype mice, the compound was typically first tested at 3 mpk, injected every other day (q.o.d.) for five doses, and the mice sacrificed 24 hr after the last injection. Candidate compounds were further tested at different dose regimes to further assess the compound's efficacy in DM1 mice.
For each mouse, blood, brain, heart, liver, kidney, tibialis anterior, gastrocnemius, and quadriceps were dissected and collected. After the mouse was euthanized, blood was collected by cardiac puncture and placed in lithium heparin tubes on ice. Plasma was separated by centrifugation and collected. Brain, heart, half of the liver, tibialis anterior, gastrocnemius, and quadriceps were flash frozen in liquid nitrogen. Half of the liver, kidneys, and subset of heart samples were fixed in 10% formalin. One of the two tibialis anterior muscles was frozen with OCT for cyro-sectioning.
Gastrocnemius muscle was used for downstream RNA extraction RT-PCR. […] Half of one gastrocnemius was used for an RNA extraction. The gastrocnemius was homogenized in Trizol reagent and extracted following the protocol of the Zymo Direct-zol RNA Mini Prep Plus kit.
For each RNA sample, 500 ng of RNA was used for a reverse transcription reaction to produce single-stranded cDNA. MBNL1-dependent splicing targets (Clcn1 exon 7a, Mbnl1 exon 5, Sercal exon 22, and Zasp exon 11) and MBNL1-independent splicing targets (Capzb exon 8, Itgb1 exon 17) were assessed by RT-PCR. For the alternative exons listed, forward and reverse primers were designed to amplify the alternative exon along with the flanking constitutive exons such that one primer may produce two PCR products: one PCR product including the alternative exon and one PCR product excluding the alternative exon. […]

[3] = system: MBNL1 exon 5 inclusion in DM1 myotubes; test: Myotube splicing rescue assay (MBNL1 exon 5 inclusion); type: cell-based, human; conditions: 48-hour incubation
r(CUG)12-MBNL1 complex = test: Inhibition of the r(CUG)12-MBNL1 complex measured by TR-FRET; type: biochemical; conditions: Table M; 80 nM RNA, 60 nM MBNL1-His6
[4] = read-out: Clcn1 exon 7a splicing rescue %
[5] = read-out: Mbnl1 exon 5 splicing rescue %
[6] = read-out: Serca1 exon 22 splicing rescue %
[7] = read-out: Zasp exon 11 splicing rescue %

| Compound | percent splicing rescue at 7.5 mg/kg (HSALR strain 20b mice [1]; [4]) [%] | percent splicing rescue at 7.5 mg/kg (HSALR strain 20b mice [1]; [5]) [%] | percent splicing rescue at 7.5 mg/kg (HSALR strain 20b mice [1]; [6]) [%] | percent splicing rescue at 7.5 mg/kg (HSALR strain 20b mice [1]; [7]) [%] | percent splicing rescue at 3 mg/kg (HSALR strain 20b mice [2]; [4]) [%] | percent splicing rescue at 3 mg/kg (HSALR strain 20b mice [2]; [5]) [%] | percent splicing rescue at 3 mg/kg (HSALR strain 20b mice [2]; [6]) [%] | percent splicing rescue at 3 mg/kg (HSALR strain 20b mice [2]; [7]) [%] | MBNL1 % splicing rescue at 10 μM [3] [%] | IC50 (r(CUG)12-MBNL1 complex) [µM] | MBNL1 % splicing rescue at 1 μM ([3]; 1 μM) [%] |
| --- | --- | --- | --- | --- | --- | --- | --- | --- | --- | --- | --- |
| CN1CCC(COc2ccc3nc(-c4ccc(-c5nc6ccc(OCC7CCN(C)CC7)cc6[nH]5)cc4)[nH]c3c2)CC1 [Compound 198, 1,4-bis(6-((1-methylpiperidin-4-yl)methoxy)-1H-benzo[d]imidazol-2-yl)benzene] | 90.4 | 94.5 | 61.2 | 91.5 | 55.1 | 49.7 | 22.3 | 35 | 109.8 | 9.67 |  |
| c1cc2nc(-c3ccc(-c4nc5ccc(OCCCN6CCCCC6)cc5[nH]4)cc3)[nH]c2cc1OCCCN1CCCCC1 [Compound 214] |  |  |  |  | -31.6 | -17.3 | -5.1 | -12.1 | 119.3 | 25.2 |  |
| CN(C)CCCOc1ccc2nc(-c3cnc(-c4nc5ccc(OCCCN(C)C)cc5[nH]4)cn3)[nH]c2c1 [Compound 274] |  |  |  |  | 31.6 | 25.2 | 10.7 | 29.8 | 65.3 | 12 |  |
| CN(C)CCCOc1cc2[nH]c(-c3ccc(-c4nc5cc(F)c(OCCCN(C)C)cc5[nH]4)cc3)nc2cc1F [Compound 277, (3-[[2-(4-[6-[3-(dimethylamino)propoxy]-5-fluoro-1H-1,3-benzodiazol-2-yl]phenyl)-5-fluoro-1H-1,3-benzodiazol-6-yl]oxy]propyl)dimethylamine; 2-hydroxypropane-1,2,3-tricarboxylic acid] |  |  |  |  | 30.3 | 19.9 | 13.2 | 24.2 | 51.0 | 8.29 |  |
| CN(C)CCCOc1ccc2nc(-c3ccc(-c4nc5ccc(OCCCN(C)C)cc5[nH]4)c(F)c3)[nH]c2c1 [Compound 286, (3-[[2-(4-[6-[3-(dimethylamino)propoxy]-1H-1,3-benzodiazol-2-yl]-3-fluorophenyl)-1H-1,3-benzodiazol-6-yl]oxy]propyl)dimethylamine] |  |  |  |  | 65.8 | 70.4 | 40.4 | 60 | 96.4 | 14.2 |  |
| CN(C)CCOc1cccc(-c2nc3cc(-c4ccc5[nH]c(-c6cccc(OCCN(C)C)c6)nc5c4)ccc3[nH]2)c1 [Compound 354] |  |  |  |  | -14 | -0.1 | 0.1 | -0.1 | 64.2 | 16.5 | 66.0 |
